# Results: paper PMC10326281, “Insights into the mechanisms governing P01 scorpion toxin effect against U87 glioblastoma cells oncogenesis” (Frontiers in Pharmacology, 2023)
# Where a SMILES comes first, the peptide text is derived from it. Bridges are numbered along the chain shown (N, C = ends).
# Experiments:
# [1] = test system: MDA-MB231 breast cancer cells; test: Cell proliferation test (crystal violet), MDA-MB231; format: cell-based, human; conditions: 2–10 μg/mL, 72 h, n = 3
# Excerpt: (§1) The ATCC (American Type Culture Collection, Rockville, MD, United States) cancer cell lines U87 (glioblastoma), MDA-MB231 (breast cancer) and LS174 (colon adenocarcinoma) were routinely cultured in DMEM supplemented with 10% fœtal bovine serum (FBS), 1% l-glutamine and 100 IU/mL penicillin/streptomycin. […] Rat SK2 cDNA cloned into pJA5 plasmid was a gift from Dr. Skolnik (university Langone Medical center, New York). Human SK3 cDNA cloned into Pipru vector was a king gift from Pr. Soriani (Université Côte d’Azur, CNRS, Inserm, Nice, France).
# (§2) The effect of the P01 peptide on cell proliferation was studied. The human cell lines U87, MDA-MB231 or LS174 (5,000 cells per well) were treated with 2; 5 and 10 μg/mL of P01 peptide. The plates were placed at 37°C for 72 h. Cellular proliferation was quantified at 560 nm by a spectrophotometer (Thermo-Multiskan EX, Shanghai, China) after treatment with 1% glutaraldehyde and staining with 0.1% crystal violet.
# (§3) Every 24 h, a series of wells was washed with PBS, the cells were fixed with 1% glutaraldehyde, and preserved in PBS to follow the kinetics of proliferation. After 72 h, the cells were stained with crystal violet 0.1% and quantified by measuring the absorbance at 560 nm using a spectrophotometer (Thermo-Multiskan EX, Shanghai, China).
# [2] = test system: apamin-sensitive receptor (SKCa channels); conditions: selective blocker of SKCa channels displaced; previously reported, ref Zerrouk et al., 1996; cited from earlier work
# Excerpt: Our team has initiated the fractionation of Aa scorpion venom, in order to identify scorpion peptides targeting potassium channels involved in the oncological process. Thus, we succeeded to isolate one peptide well represented in this venom. Based on its N-terminal sequence and its mass fingerprint this peptide corresponded to the P01 toxin, previously described by ([Zerrouk et al., 1996]).
# U87 glioblastoma cells [3] = test: Cell proliferation test (crystal violet), U87; format: cell-based, human
# Excerpt: as §1, §2, §3
# human SK3 channel = test: Whole-cell patch clamp, human SK3 in HEK293T cells; format: cell-based; conditions: human SK3 in HEK cells, currents recorded at 0 mV, pCa 6
# Excerpt: as §1
# HEK293T-hSK3 and HEK293-rSK2 cells were selected using the puromycin and neomycin resistance gene respectively. HEK cells were routinely cultured in DMEM supplemented with 5% FBS and 1% l-glutamine. All cell lines were maintained at 37°C in a humid atmosphere of 5% CO2 in air.
# Experiments were performed with cells seeded into 35-mm Petri dishes at 3,000 to 6,000 cells per cm^2. All experiments were performed using the conventional whole-cell recording configuration of the patch-clamp technique ([Girault et al., 2011]). For HEK cells expressing SK2 or SK3 channels, voltages clamp ramp protocols were used with a duration of 2 s, with varying voltages - 100 to +100 mV, with a holding potential of 0 mV. […] Also, at 0 mV, the membrane potential currents will be recorded mainly K^+ currents and not Cl^− currents.
# α1β1 integrin = test: U87 cell adhesion in presence of anti-integrin antibodies, α1β1; format: cell-based, human; conditions: 50 μg/mL P01, 30 min pre-incubation, 2 h at 37°C, anti-α1β1 (1/200), n = 3
# Procedure: To study the implication of integrins in the P01 peptide activity, adhesion assays using anti-integrin blocking antibodies: anti- α1β1 (1/200), anti- αvβ3 (1/200), anti- α5 (1/200) and anti- β3 (1/200) were performed as described above, except that cells were pretreated with the active peptide P01 at 50 μg/mL.
# U87 glioblastoma cells [4] = test: Cell adhesion assay, U87; format: cell-based, human; conditions: n = 3; for inhibition of adhesion: 50 μg/mL P01, 2 h
# Excerpt: as §1
# Adhesion assays were performed as previously described by ([Sarray et al., 2007]). Glioblastoma U87 cells in suspension (10^6 cells/mL) were treated with 50 μg/mL of P01 and deposited on wells coated with purified extracellular matrix (ECM): Fg at 50 μg/mL; Fn at 10 μg/mL; Coll-I at 50 μg/mL; laminin (Lam) at 15 μg/mL or poly-L-lysine (PL) at 20 μg/mL for U87. MDA-MB231 and LS174 cells were also used in their adequate ECM: Fg and Coll-I respectively. They were incubated to adhere to the substrate for 2 h or 24 h at 37°C. After washing, attached cells were fixed, stained by 0.1% crystal violet, lysed with 1% SDS and quantified by measuring absorbance at 560 nm. The specific adhesion is obtained by subtracting the absorbance obtained in the absence of adhesion substrate (no specific control). To study the dose-response effect, different concentrations of P01 were used (25–100 μg/mL) and the IC50 value was determined.
# [5] = test system: SK2 currents of U87 cells; test: Whole-cell patch clamp, K+ currents of U87 cells; format: cell-based, human; conditions: P01 125 pM vs Leidab-7 50 nM, ns between treatments
# Excerpt: For U87 cells, whole-cell K^+ currents were generated by stepwise 8 mV depolarizing pulses from a constant holding potential of −90 up to +60 mV. The composition of extracellular solution is the same as that described above and the intracellular pipette solution is as follows in mM: K-glutamate 125, KCl 20, MgCl2 1, Mg-ATP 1, HEPES 10, CaCl2 0.7, EGTA 1, and pH was adjusted to 7.2 with KOH. The pCa is of 6.4 (10^−6.4 M of calcium concentration). Leidab-7 (Tocris, France) was used as reference peptide to selectively block SK2 currents in U87 cells.
smiles,measurement,setting,value
"CC[C@H](C)[C@H](NC(=O)[C@@H]1CCCN1C(=O)[C@H](CCC(=O)O)NC(=O)[C@@H]1CSSC[C@@H]2NC(=O)[C@H](Cc3c[nH]cn3)NC(=O)[C@H](CCC(=O)O)NC(=O)[C@@H]3CCCN3C(=O)[C@@H]3CSSC[C@H](NC(=O)[C@H](CCCCN)NC(=O)[C@H](CC(=O)O)NC(=O)[C@H](CC(N)=O)NC(=O)[C@H](CC(=O)O)NC(=O)[C@H](CSSC[C@H](NC(=O)[C@H](CO)NC(=O)[C@@H](N)C(C)C)C(=O)N[C@@H](CCC(=O)O)C(=O)N[C@@H](CC(=O)O)C(=O)N3)NC(=O)[C@H](CCCCN)NC(=O)[C@H](C)NC(=O)[C@H](CCC(N)=O)NC(=O)[C@H](C)NC(=O)[C@H](CCCCN)NC(=O)[C@H](CCC(N)=O)NC(=O)[C@H]([C@@H](C)O)NC(=O)[C@H](CO)NC2=O)C(=O)N[C@@H](C(C)C)C(=O)N1)C(=O)O [P01] (H-VSCEDCPEHCSTQKAQAKCDNDKCVCEPI-OH; disulfide 3-19, 6-24, 10-26 (inferred); N-terminus and C-terminus assumed)",effect on cell proliferation,[1],no effect
same,inhibition of 125I-apamin binding,[2],inhibit the binding of ^125I-apamin
same,IC50 (viability/proliferation),U87 glioblastoma cells [3]; 72 h of incubation,10 µg/mL
same,kinetic effect on proliferation,"U87 glioblastoma cells [3]; P01 at 10 μg/mL, time course to 72 h, n = 3",inhibition appeared after 48 h of treatment
same,effect on SK3 current,human SK3 channel,no effect
same,effect on adhesive function of α1β1,α1β1 integrin,reduced the adhesive function
same,"effect on adhesion after 24 h, Fg and Fn","U87 glioblastoma cells [4]; Fg and Fn, 50 μg/mL P01, 24 h",stayed active on Fg and Fn
same,inhibition of adhesion,"U87 glioblastoma cells [4]; fibrinogen (Fg), 37°C",41%
same,IC50 (adhesion to Fg),"U87 glioblastoma cells [4]; fibrinogen, 25–100 μg/mL, 2 h",48.86 µg/mL
same,inhibition of adhesion,"U87 glioblastoma cells [4]; fibronectin (Fn), 37°C",38%
same,IC50 (adhesion to Fn),"U87 glioblastoma cells [4]; fibronectin, 25–100 μg/mL, 2 h",62.04 µg/mL
same,inhibition of adhesion,U87 glioblastoma cells [4]; poly-L-lysine (Pl),no inhibition could be observed
same,"effect on adhesion after 24 h, Pl","U87 glioblastoma cells [4]; poly-L-lysine (Pl), 50 μg/mL P01, 24 h",an inhibition effect on Pl appeared
same,current density-voltage relationship compared with Leidab-7,[5],similar
